target: human TREK-1 (Homo sapiens (Human), UniProt O95069); assay: TREK-1 Thallium (Tl+) flux assay; assay type: cell-based; details: CHO-K1 cells stably expressing human TREK-1
Sequence (O95069 whole entry): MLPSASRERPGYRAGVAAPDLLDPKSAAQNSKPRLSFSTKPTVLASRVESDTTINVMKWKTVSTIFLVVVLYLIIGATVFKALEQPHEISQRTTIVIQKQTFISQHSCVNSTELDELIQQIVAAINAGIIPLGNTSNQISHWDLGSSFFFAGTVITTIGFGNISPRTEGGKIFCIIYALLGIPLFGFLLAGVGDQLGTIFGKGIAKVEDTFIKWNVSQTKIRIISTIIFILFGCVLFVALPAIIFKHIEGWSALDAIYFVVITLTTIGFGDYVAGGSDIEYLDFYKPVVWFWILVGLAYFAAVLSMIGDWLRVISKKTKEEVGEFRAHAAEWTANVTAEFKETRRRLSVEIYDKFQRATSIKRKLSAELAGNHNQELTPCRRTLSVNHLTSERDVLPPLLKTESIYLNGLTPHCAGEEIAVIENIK

SMILES | IC50 [nM]
Cc1nc(C)c(-c2ccc(Cl)c(C(=O)Nc3ncc(C#Cc4ccccc4)cc3C)c2)s1 [Compound 70, 2-chloro-5-(2,4-dimethylthiazol-5-yl)-N-[3-methyl-5-(2-phenylethynyl)-2-pyridyl]benzamide] | 260
Cc1cc(C#Cc2ccccc2)cnc1NC(=O)c1cc(-c2nc(C3CC3)no2)ccc1Cl [Compound 57, 2-chloro-5-(3-cyclopropyl-1,2,4-oxadiazol-5-yl)-N-[3-methyl-5-(2-phenylethynyl)-2-pyridyl]benzamide] | 130
Cc1noc(-c2ccc(Cl)c(C(=O)Nc3ncc(C#Cc4ccccc4)cc3C)c2)n1 [Compound 63, 2-chloro-5-(3-methyl-1,2,4-oxadiazol-5-yl)-N-[3-methyl-5-(2-phenylethynyl)-2-pyridyl]benzamide] | 200
Cc1cc(OCc2ccccc2)cc(C)c1NC(=O)c1cc(NC(=O)OC(C)(C)C)ccc1Cl [Compound 88, tert-butyl (3-((4-(benzyloxy)-2,6-dimethylphenyl)carbamoyl)-4-chlorophenyl)carbamate] | 360
Cc1cc(COc2ccccc2)ccc1NC(=O)c1cc(NC(=O)OC(C)(C)C)ccc1Cl [Compound 26, tert-butyl (4-chloro-3-((2-methyl-4-(phenoxymethyl)phenyl)carbamoyl)phenyl)carbamate] | 670
CC(=O)Nc1ccc(Cl)c(C(=O)Nc2ccc(OCc3ccccc3)cc2C)c1 [Compound 91] | 1030
CC(C)(C)OC(=O)Nc1ccc(Cl)c(C(=O)Nc2ncc(C#Cc3ccccc3)cc2F)n1 [Compound 38, tert-butyl N-[5-chloro-6-[[3-fluoro-5-(2-phenylethynyl)-2-pyridyl]carbamoyl]-2-pyridyl]carbamate] | 440
Cc1cc(C#Cc2ccccc2)cnc1NC(=O)c1cc(C(=O)N2CC(F)C2)ccc1Cl [Compound 73, 2-chloro-5-(3-fluoroazetidine-1-carbonyl)-N-[3-methyl-5-(2-phenylethynyl)-2-pyridyl]benzamide] | 390
Cc1cc(C#Cc2ccccc2)cnc1NC(=O)c1cc(NC(=O)[C@H]2C[C@@H]2C)ccc1Cl [Compound 27, 2-chloro-5-[[(1S,2S)-2-methylcyclopropanecarbonyl]amino]-N-[3-methyl-5-(2-phenylethynyl)-2-pyridyl]benzamide] | 100
O=C(Nc1ncc(C#Cc2ccccc2)cc1F)c1cc(-c2noc(C3CCOC3)n2)ccc1Cl (stereo not drawn) [Compound 54] | 80
Cc1cc(C#Cc2ccccc2)cnc1NC(=O)c1cc(-c2cn(C)nc2C)ccc1Cl [Compound 74, 2-chloro-5-(1,3-dimethylpyrazol-4-yl)-N-[3-methyl-5-(2-phenylethynyl)-2-pyridyl]benzamide] | 410
Cc1cc(C#Cc2ccccc2)cnc1NC(=O)c1cc(C#N)ccc1Cl [Compound 53, 2-chloro-5-cyano-N-(3-methyl-5-(phenylethynyl)pyridin-2-yl)benzamide] | 810
Cc1cc(C#Cc2ccccc2)cnc1N1Cc2ccc(NC(=O)OC(C)(C)C)cc2C1=O [Compound 44, tert-butyl N-[2-[3-methyl-5-(2-phenylethynyl)-2-pyridyl]-3-oxo-isoindolin-5-yl]carbamate] | 580
Cc1cc(C#Cc2ccccc2)cnc1NC(=O)c1cc(NC(=O)C2COCCO2)ccc1Cl (stereo not drawn) [Compound 31, N-[4-chloro-3-[[3-methyl-5-(2-phenylethynyl)-2-pyridyl]carbamoyl]phenyl]-1,4-dioxane-2-carboxamide] | 260
Cc1cc(C#Cc2ccccc2)cnc1N1Cc2ccc(OCC3COCCO3)cc2C1=O (stereo not drawn) [Compound 81, 6-(1,4-dioxan-2-ylmethoxy)-2-[3-methyl-5-(2-phenylethynyl)-2-pyridyl]isoindolin-1-one] | 360
Cc1cc(C#Cc2ccccc2)cnc1NC(=O)c1cc(NC(=O)OC(C)(C)C)cc(F)c1Cl [Compound 35, tert-butyl N-[4-chloro-3-fluoro-5-[[3-methyl-5-(2-phenylethynyl)-2-pyridyl]carbamoyl]phenyl]carbamate] | 400
Cc1cc(C#Cc2cccc(F)c2)cnc1NC(=O)c1cc(NC(=O)C2COCCO2)ccc1Cl (stereo not drawn) [Compound 13, N-[4-chloro-3-[[5-[2-(3-fluorophenyl)ethynyl]-3-methyl-2-pyridyl]carbamoyl]phenyl]-1,4-dioxane-2-carboxamide] | 280
Cc1cc(C#Cc2ccccc2F)cnc1NC(=O)c1cc(NC(=O)OC(C)(C)C)ccc1Cl [Compound 42, tert-butyl N-[4-chloro-3-[[5-[2-(2-fluorophenyl)ethynyl]-3-methyl-2-pyridyl]carbamoyl]phenyl]carbamate] | 540

Continued by falling IC50, values first:

IC50 [nM] | SMILES
420 | Cc1cc(C#Cc2ccccc2)cnc1NC(=O)c1cc(NC(=O)[C@@H]2C[C@H]2C)ccc1Cl [Compound 36, 2-chloro-5-[[(1R,2R)-2-methylcyclopropanecarbonyl]amino]-N-[3-methyl-5-(2-phenylethynyl)-2-pyridyl]benzamide]
280 | Cc1cc(C#Cc2ccccc2)cnc1NC(=O)c1cc(NC(=O)C2CC(C)(O)C2)ccc1Cl (stereo not drawn) [Compound 32, 2-chloro-5-[(3-hydroxy-3-methyl-cyclobutanecarbonyl)amino]-N-[3-methyl-5-(2-phenylethynyl)-2-pyridyl]benzamide]
230 | Cc1cc(C#Cc2ccccc2)cnc1NC(=O)c1cc(C(=O)N2CCCC2C)ccc1Cl (stereo not drawn) [Compound 69, 2-chloro-N-[3-methyl-5-(2-phenylethynyl)-2-pyridyl]-5-(2-methylpyrrolidine-1-carbonyl)benzamide]
230 | Cc1cc(-c2noc(-c3ccc(F)cc3)n2)cnc1NC(=O)c1cc(NC(=O)OC(C)(C)C)ccc1Cl [Compound 95, tert-butyl N-[4-chloro-3-[[5-[5-(4-fluorophenyl)-1,2,4-oxadiazol-3-yl]-3-methyl-2-pyridyl]carbamoyl]phenyl]carbamate]
200 | CCn1ccc(-c2ccc(Cl)c(C(=O)Nc3ncc(C#Cc4ccccc4)cc3C)c2)n1 [Compound 64, 2-chloro-5-(1-ethylpyrazol-3-yl)-N-[3-methyl-5-(2-phenylethynyl)-2-pyridyl]benzamide]
200 | Cc1cc(-c2cnn(-c3ccc(F)cc3)c2)cnc1NC(=O)c1cc(NC(=O)OC(C)(C)C)ccc1Cl [Compound 94, tert-butyl N-[4-chloro-3-[[5-[1-(4-fluorophenyl)pyrazol-4-yl]-3-methyl-2-pyridyl]carbamoyl]phenyl]carbamate]
130 | Cc1cc(C#Cc2ccccc2)cnc1NC(=O)c1cc(OCC2COCCO2)ccc1Cl (stereo not drawn) [Compound 22, 2-chloro-5-(1,4-dioxan-2-ylmethoxy)-N-[3-methyl-5-(2-phenylethynyl)-2-pyridyl]benzamide]
90 | C[C@H]1C[C@@H]1C(=O)Nc1ccc(Cl)c(C(=O)Nc2ncc(C#Cc3ccccc3)cc2F)c1 [Compound 2, 2-chloro-N-[3-fluoro-5-(2-phenylethynyl)-2-pyridyl]-5-[[(1S,2S)-2-methylcyclopropanecarbonyl]amino]benzamide]
70 | CC1CC1C(=O)Nc1ccc(Cl)c(C(=O)Nc2ncc(C#Cc3ccccc3)cc2F)c1 (stereo not drawn) [Compound 3, 2-chloro-N-[3-fluoro-5-(2-phenylethynyl)-2-pyridyl]-5-[(2-methylcyclopropanecarbonyl)amino]benzamide]

Reference: patent US20240190824A1, “INHIBITORS OF TREK (TWIK RELATED K+ CHANNELS) CHANNEL FUNCTION” (ONO PHARMACEUTICAL CO., LTD., priority 2019, published 2024)
